Reference: patent US10681909B2, “Herbicidal triazoles” (FMC Corporation, priority 2014, dated 2020)

What was measured:
galium [1] = test: Test C preemergence; type: in vivo, Galium aparine; details: for Plant response rating (scale of 0 to 100 where 0 is no effect and 100 is complete control): Galium, preemergence; for Galium plant response rating (0 to 100): Preemergence, visual rating after 13 to 15 d
Text: (§1) Seeds of plant species selected from blackgrass (Alopecurus myosuroides), ryegrass, Italian (Italian ryegrass, Lolium multiflorum), wheat (winter wheat, Triticum aestivum), galium (catchweed bedstraw, Galium aparine), corn (Zea mays), crabgrass, large (large crabgrass, Digitaria sanguinalis), foxtail, giant, (giant foxtail, Setaria faberii), johnsongrass (Sorghum halepense), lambsquarters (Chenopodium album), morningglory (Ipomoea coccinea), nutsedge, yellow (yellow nutsedge, Cyperus esculentus), pigweed (Amaranthus retroflexus), ragweed (common ragweed, Ambrosia elatior), soybean (Glycine max), barnyardgrass (Echinochloa crus-galli), oilseed rape (Brassica napus), waterhemp (common waterhemp, Amaranthus rudis), and velvetleaf (Abutilon theophrasti) were planted into a blend of loam soil and sand and treated preemergence with test chemicals formulated in a non-phytotoxic solvent mixture which included a surfactant. At the same time, plants selected from these crop and weed species and also chickweed (common chickweed, Stellaria media), oat, wild (wild oat, Avena fatua), and kochia (Kochia scoparia), were planted in pots containing Sunshine Redi-Earth® planting medium comprising spaghnum peat moss, vermiculite, starter nutrients and dolomitic limestone and treated with postemergence applications of test chemicals formulated in the same manner. Plants ranged in height from 2 to 18 cm (1- to 4-leaf stage) for postemergence treatments. […] A dash (-) response means no test result.

ragweed = test: Test C preemergence; type: in vivo, Ambrosia elatior; details: for Ragweed plant response rating (0 to 100): Preemergence, visual rating after 13 to 15 d; for Plant response rating (scale of 0 to 100 where 0 is no effect and 100 is complete control): Ragweed, preemergence
Text: as §1

galium [2] = test: Test D preemergence; type: in vivo, Galium aparine; details: scale 0 to 100
Text: (§2) Seeds of plant species selected from bluegrass (annual bluegrass, Poa annua), blackgrass (Alopecurus myosuroides), canarygrass (Phalaris minor), chickweed (common chickweed, Stellaria media), galium (catchweed bedstraw, Galium aparine), bromegrass, down (downy bromegrass, Bromus tectorum), Russian thistle (Salsola kali), field poppy (Papaver rhoeas), field violet (Viola arvensis), foxtail, green (green foxtail, Setaria viridis), deadnettle (henbit deadnettle, Lamium amplexicaule), ryegrass, Ital. (Italian ryegrass, Lolium multiflorum), kochia (Kochia scoparia), lambsquarters (Chenopodium album), oilseed rape (Brassica napus), pigweed (Amaranthus retroflexus), chamomile (scentless chamomile, Matricaria inodora), speedwell (bird's-eye speedwell, Veronica persica), barley, spring (spring barley, Hordeum vulgare), wheat, spring (spring wheat, Triticum aestivum), buckwheat, wild (wild buckwheat, Polygonum convolvulus), wild mustard (Sinapis arvensis), oat, wild (wild oat, Avena fatua), radish, wild (wild radish, Raphanus raphanistrum), […]), barley, winter (winter barley, Hordeum vulgare), and wheat, winter (winter wheat, Triticum aestivum) were planted into a silt loam soil and treated preemergence with test chemicals formulated in a non-phytotoxic solvent mixture which included a surfactant. At the same time, these species were planted in pots containing Sunshine Redi-Earth® planting medium comprising spaghnum peat moss, vermiculite, starter nutrients and dolomitic limestone and treated with postemergence applications of the test chemicals formulated in the same manner. Plants ranged in height from 2 to 18 cm (1- to 4-leaf stage). Treated plants and controls were maintained in a controlled growth environment for 14 to 21 d after which time all species were compared to controls and visually evaluated. […] A dash (-) response means no test result.

windgrass = test: Test D postemergence; type: in vivo, Apera spica-venti; details: scale 0 to 100
Text: as §2

oat, wild = test: Test D postemergence; type: in vivo, Avena fatua; details: scale 0 to 100
Text: as §2

field poppy [3] = test: Test D postemergence; type: in vivo, Papaver rhoeas; details: scale 0 to 100
Text: as §2

ryegrass, Ital. = test: Test D postemergence; type: in vivo, Lolium multiflorum; details: scale 0 to 100
Text: as §2

field poppy [4] = test: Test D preemergence; type: in vivo, Papaver rhoeas; details: scale 0 to 100
Text: as §2

canarygrass = test: Test D preemergence; type: in vivo, Phalaris minor; details: scale 0 to 100
Text: as §2

lambsquarters = test: Test D postemergence; type: in vivo, Chenopodium album; details: scale 0 to 100
Text: as §2

nutsedge, yellow = test: Test C preemergence; type: in vivo, Cyperus esculentus; details: for Plant response rating (scale of 0 to 100 where 0 is no effect and 100 is complete control): Nutsedge, Yellow, preemergence; for Nutsedge, Yellow plant response rating (0 to 100): Preemergence, visual rating after 13 to 15 d
Text: as §1

CCOc1nc(-c2ccc(F)cc2)nn1Cc1ccnc(C(F)(F)F)c1 [Compound 8, 4-[[5-ethoxy-3-(4-fluorophenyl)-1H-1,2,4-triazol-1-yl]methyl]-2-(trifluoromethyl)pyridine]
Plant response rating (scale of 0 to 100 where 0 is no effect and 100 is complete control) (galium [1]; 125 g ai/ha): 100
Plant response rating (scale of 0 to 100 where 0 is no effect and 100 is complete control) (galium [1]; 250 g ai/ha): 100
Galium plant response rating (0 to 100) (galium [1]; 31 g ai/ha): 80
Galium plant response rating (0 to 100) (galium [1]; 62 g ai/ha): 100
Ragweed plant response rating (0 to 100) (ragweed; 31 g ai/ha): 75
Ragweed plant response rating (0 to 100) (ragweed; 62 g ai/ha): 85
Plant response rating (scale of 0 to 100 where 0 is no effect and 100 is complete control) (ragweed; 125 g ai/ha): 90
Plant response rating (scale of 0 to 100 where 0 is no effect and 100 is complete control) (ragweed; 250 g ai/ha): 90
Plant response rating: Galium (galium [2]; 62 g ai/ha): 35
Plant response rating: Galium (galium [2]; 125 g ai/ha): 50
Plant response rating: Galium (galium [2]; 250 g ai/ha): 70
Plant response rating: Windgrass (windgrass; 31 g ai/ha): 40
Plant response rating: Windgrass (windgrass; 62 g ai/ha): 60
Plant response rating: Windgrass (windgrass; 125 g ai/ha): 75
Plant response rating: Windgrass (windgrass; 250 g ai/ha): 85
Plant response rating: Oat, Wild (oat, wild; 31 g ai/ha): 35
Plant response rating: Oat, Wild (oat, wild; 62 g ai/ha): 45
Plant response rating: Oat, Wild (oat, wild; 125 g ai/ha): 45
Plant response rating: Oat, Wild (oat, wild; 250 g ai/ha): 55
Plant response rating: Field Poppy (field poppy [3]; 31 g ai/ha): 80
Plant response rating: Field Poppy (field poppy [3]; 62 g ai/ha): 90
Plant response rating: Field Poppy (field poppy [3]; 125 g ai/ha): 95
Plant response rating: Field Poppy (field poppy [3]; 250 g ai/ha): 100
Plant response rating: Ryegrass, Ital. (ryegrass, Ital.; 31 g ai/ha): 35
Plant response rating: Ryegrass, Ital. (ryegrass, Ital.; 62 g ai/ha): 35
Plant response rating: Ryegrass, Ital. (ryegrass, Ital.; 125 g ai/ha): 55
Plant response rating: Ryegrass, Ital. (ryegrass, Ital.; 250 g ai/ha): 55
Plant response rating: Field Poppy (field poppy [4]; 62 g ai/ha): 100
Plant response rating: Field Poppy (field poppy [4]; 125 g ai/ha): 100
Plant response rating: Field Poppy (field poppy [4]; 250 g ai/ha): 100
Plant response rating: Canarygrass (canarygrass; 31 g ai/ha): 50
Plant response rating: Canarygrass (canarygrass; 62 g ai/ha): 100
Plant response rating: Canarygrass (canarygrass; 125 g ai/ha): 100
Plant response rating: Canarygrass (canarygrass; 250 g ai/ha): 100
Plant response rating: Lambsquarters (lambsquarters; 31 g ai/ha): 95
Plant response rating: Lambsquarters (lambsquarters; 62 g ai/ha): 95
Plant response rating: Lambsquarters (lambsquarters; 125 g ai/ha): 95
Plant response rating: Lambsquarters (lambsquarters; 250 g ai/ha): 90
Plant response rating (scale of 0 to 100 where 0 is no effect and 100 is complete control) (nutsedge, yellow; 125 g ai/ha): 55
Plant response rating (scale of 0 to 100 where 0 is no effect and 100 is complete control) (nutsedge, yellow; 250 g ai/ha): 80
Nutsedge, Yellow plant response rating (0 to 100) (nutsedge, yellow; 31 g ai/ha): 10
Nutsedge, Yellow plant response rating (0 to 100) (nutsedge, yellow; 62 g ai/ha): 40
